Test results reported in patent publication US20080260716A1, “Method and Composition for High Level Disinfection Employing Quaternary Ammonium Compounds” (priority 2004, published 2008).

Legend:
[1] = tested on: Mycobacterium terrae; experiment: AOAC tuberculocidal test, kill time; type: cell-based
From the text: These standards are based on the known or possible risk of contamination of a particular medical device by a particular micro-organism, the pathogenic nature of the organism and other principles in infection control. […] The test panels and criteria are different for “low”, “intermediate” or “high-level disinfection”. These terms are herein used in accordance with current Food and Drug Administration (“FDA”) criteria for levels of disinfection which are detailed in Premarket Notification [510(k)] Submissions for Liquid Chemical Sterilants and High Level Disinfectants FDA 1997: “A germicide that inactivates all microbial pathogens except large number of bacterial endospores when used according to labelling”. In brief, the FDA regulatory requirement for high level disinfectants includes as the most challenging test a 100% kill of Mycobacterium tuberculosis var. bovis (or a specific strain of a suitable surrogate, such as Mycobacterium terrae) in 400 p.p.m. hard water in the presence of 2% horse serum in a quantitative tuberculocidal test.
In the following tables unless otherwise specified references to “kill time” mean the time required to achieve complete kill as defined in the relevant AOAC test (more particularly identified in annexure 1). “No kill” means less than 2 log reduction from the initial population. Unless otherwise specified “QUAT” is benzalkonium chloride, specifically Gardiquat NC-50 (Albright & Wilson). Test points for vegetative bacteria (M. terrae) were 2, 5, 10, 20 and 60 mins. Test points for spores were 0.5, 1, 2, 4, 16, 24, 48 hours. The last column in each table indicates whether the tested combination satisfies the FDA requirement for high level disinfection (“HLD”) or fails to do so (“F”).
AOAC tests for determination of High level Disinfection as defined in current FDA criteria (detailed in “Premarket Notification [510(k)] Submissions for Liquid Chemical Sterilants and High Level Disinfectants FDA 1993”.):
AOAC Tuberculocidal Activity of Disinfectants
AOAC Ref No 965.12, AOAC Official Methods of Analysis (1995)

[2] = tested on: B. subtilis spores; experiment: AOAC sporicidal test, kill time; type: cell-based; conditions: for B. subtilis (no kill): 48 hrs
[3] = Table 3 Prior art, 0.25% QUAT, 25° C.
[4] = Table 6 unnumbered test, 2% QUAT + 0.2% Protease (Savinase 16 L), 25° C. + 1% borax
[5] = test 3.4, 0.25% QUAT, 62° C. + ultrasound
[6] = test 4.1, 2% QUAT, 25° C. + 1% borax
[7] = test 4.2, 5% QUAT, 25° C. + 1% borax
[8] = test 4.3, 1% QUAT, 40° C. + 1% borax
[9] = test 4.4, 2% QUAT, 40° C. + 1% borax
[10] = test 4.5, 5% QUAT, 40° C. + 1% borax
[11] = test 4.6, 2% QUAT, 50° C. + 1% borax
[12] = test 4.7, 5% QUAT, 50° C. + 1% borax
[13] = test 5.1, 1% QUAT, 40° C. + ultrasound 10 min each hour
[14] = test 5.2, 2% QUAT, 40° C. + ultrasound 10 min each hour
[15] = test 5.3, 5% QUAT, 40° C. + ultrasound 10 min each hour
[16] = test 5.4, 1% QUAT, 40° C. + ultrasound 10 min each hour
[17] = test 5.5, 2% QUAT + 1% borax, 40° C. + ultrasound 10 min each hour
[18] = test 5.6, 5% QUAT + 1% borax, 40° C. + ultrasound 10 min each hour
[19] = test 5.7, 2% QUAT + 1% borax + Protease, 40° C. + ultrasound 10 min each hour
[20] = test 6.1, 2% QUAT + 0.2% Protease (Savinase 16 L), 25° C.
[21] = test 6.2, 2% QUAT + 0.2% Protease (Savinase 16 L), 40° C.
[22] = test 6.3, 2% QUAT + 0.2% Protease (Savinase 16 L), 40° C. + 1% borax
[23] = test 6.4, 2% QUAT + 0.2% Protease (Savinase 16 L), 50° C.
[24] = test 6.5, 2% QUAT + 0.2% Protease (Savinase 16 L), 50° C. + 1% borax
[25] = test 6.6, 2% QUAT + 0.2% Protease (Savinase 16 L), 40° C. + ultrasound 10 min each hour + 1% borax
[26] = test 6.7, 2% QUAT + 1% borax + Protease, 40° C. + ultrasound 10 min each hour

For benzalkonium chloride [QUAT], the “Kill Time M. terrae” value [1, 3] was over 60 min, the “Kill Time M. terrae” value [1, 4] was over 60 min and the “kill time of Mycobacterium terrae” value ([1]; above 1% w/w of quat, 40° C.) was “less than 5 mins”. For the same substance, the “Kill Time Mycobacterium terrae” value ([1]; test 1.1, 0.025% QUAT, 25° C.) was over 60 min, the “Kill Time Mycobacterium terrae” value ([1]; test 1.2, 0.25% QUAT, 25° C.) was over 60 min and the “Kill Time Mycobacterium terrae” value ([1]; test 2.1, 5% QUAT, 30° C.) was under 5 min. The “Kill Time Mycobacterium terrae” value ([1]; test 2.2, 1.0% QUAT, 40° C.) was under 5 min, the “Kill Time Mycobacterium terrae” value ([1]; test 2.3, 2.0% QUAT, 40° C.) was under 5 min and the “Kill Time Mycobacterium terrae” value ([1]; test 2.4, 5.0% QUAT, 40° C.) was under 5 min. For the same substance, the “Kill Time Mycobacterium terrae” value ([1]; test 2.5, 1.0% QUAT, 50° C.) was under 5 min, the “Kill Time Mycobacterium terrae” value ([1]; test 2.6, 2.0% QUAT, 50° C.) was under 5 min and the “Kill Time Mycobacterium terrae” value ([1]; test 2.7, 5.0% QUAT, 50° C.) was under 5 min. The “Kill Time Mycobacterium terrae” value ([1]; test 2.8, 1.0% QUAT, 80° C.) was under 5 min, the “Kill Time M. terrae” value ([1]; test 3.1, 0.25% QUAT, 40° C.) was over 60 min and the “Kill Time M. terrae” value ([1]; test 3.2, 0.25% QUAT, 50° C.) was over 60 min. For the same substance, the “Kill Time M. terrae” value ([1]; test 3.3, 0.25% QUAT, 60° C.) was over 60 min, the “Kill Time M. terrae” value [1, 5] was over 60 min and the “Kill Time M. terrae” value ([1]; test 3.5, 1.0% QUAT, 25° C.) was over 60 min. The “Kill Time M. terrae” value ([1]; test 3.6, 2.0% QUAT, 25° C.) was over 60 min, the “Kill Time M. terrae” value ([1]; test 3.7, 5.0% QUAT, 25° C.) was over 60 min and the “Kill Time M. terrae” value ([1]; test 3.8, 0.6%, 40° C.) was over 60 min. The “Kill Time M. terrae” value ([1]; test 3.9, 0.6% QUAT, 50° C.) was over 20 min, the “Kill Time M. terrae” value [1, 6] was over 60 min and the “Kill Time M. terrae” value [1, 7] was over 60 min. The “Kill Time M. terrae” value [1, 8] was under 5 min, the “Kill Time M. terrae” value [1, 9] was under 2 min and the “Kill Time M. terrae” value [1, 10] was under 2 min. The “Kill Time M. terrae” value [1, 11] was under 2 min, the “Kill Time M. terrae” value [1, 12] was under 2 min and the “Kill Time M. terrae” value [1, 13] was under 5 min. For the same substance, the “Kill Time M. terrae” value [1, 14] was under 5 min, the “Kill Time M. terrae” value [1, 15] was under 5 min and the “Kill Time M. terrae” value [1, 16] was under 5 min. For the same substance, the “Kill Time M. terrae” value [1, 17] was under 2 min, the “Kill Time M. terrae” value [1, 18] was under 2 min and the “Kill Time M. terrae” value [1, 19] was under 2 min. The “Kill Time M. terrae” value [1, 20] was over 60 min, the “Kill Time M. terrae” value [1, 21] was under 5 min and the “Kill Time M. terrae” value [1, 22] was under 2 min. For the same substance, the “Kill Time M. terrae” value [1, 23] was under 5 min, the “Kill Time M. terrae” value [1, 24] was under 2 min and the “Kill Time M. terrae” value [1, 25] was under 2 min. The “Kill Time M. terrae” value [1, 26] was under 2 min, the “Kill Time B. subtilis” value [2, 3] was over 24 h and the “Kill Time B. subtilis” value [2, 4] was over 48 h. The “B. subtilis (no kill)” value [2, 4] was “(no kill) (“No kill” means less than 2 log reduction from the initial population)”, the “kill time of B. subtilis” value ([2]; above 1% w/w of quat, 40° C.) was “less than 2 hours” and the “Kill Time B. subtilis” value ([2]; test 1.1, 0.025% QUAT, 25° C.) was over 24 h. The “Kill Time B. subtilis” value ([2]; test 1.2, 0.25% QUAT, 25° C.) was over 24 h, the “Kill Time B. subtilis” value ([2]; test 2.1, 5% QUAT, 30° C.) was under 2 h and the “Kill Time B. subtilis” value ([2]; test 2.2, 1.0% QUAT, 40° C.) was under 2 h. The “Kill Time B. subtilis” value ([2]; test 2.3, 2.0% QUAT, 40° C.) was under 2 h, the “Kill Time B. subtilis” value ([2]; test 2.4, 5.0% QUAT, 40° C.) was under 1 h and the “Kill Time B. subtilis” value ([2]; test 2.5, 1.0% QUAT, 50° C.) was under 1 h. The “Kill Time B. subtilis” value ([2]; test 2.6, 2.0% QUAT, 50° C.) was under 1 h, the “Kill Time B. subtilis” value ([2]; test 2.7, 5.0% QUAT, 50° C.) was under 1 h and the “Kill Time B. subtilis” value ([2]; test 2.7, 5.0% QUAT, 50° C., listed as quat) was “less than one hour”. The “Kill Time B. subtilis” value ([2]; test 2.8, 1.0% QUAT, 80° C.) was under 1 h, the “Kill Time B. subtilis” value ([2]; test 2.8, 1.0% QUAT, 80° C., listed as quat) was “less than one hour” and the “Kill Time B. subtilis” value ([2]; test 3.1, 0.25% QUAT, 40° C.) was over 24 h. For the same substance, the “Kill Time B. subtilis” value ([2]; test 3.2, 0.25% QUAT, 50° C.) was over 24 h, the “Kill Time B. subtilis” value ([2]; test 3.3, 0.25% QUAT, 60° C.) was over 24 h and the “Kill Time B. subtilis” value [2, 5] was over 24 h. The “Kill Time B. subtilis” value ([2]; test 3.5, 1.0% QUAT, 25° C.) was over 48 h, the “B. subtilis (no kill)” value ([2]; test 3.5, 1.0% QUAT, 25° C.) was “(no kill) (“No kill” means less than 2 log reduction from the initial population)” and the “Kill Time B. subtilis” value ([2]; test 3.6, 2.0% QUAT, 25° C.) was over 48 h. For the same substance, the “B. subtilis (no kill)” value ([2]; test 3.6, 2.0% QUAT, 25° C.) was “(no kill) (“No kill” means less than 2 log reduction from the initial population)”, the “Kill Time B. subtilis” value ([2]; test 3.7, 5.0% QUAT, 25° C.) was over 48 h and the “B. subtilis (no kill)” value ([2]; test 3.7, 5.0% QUAT, 25° C.) was “(no kill) (“No kill” means less than 2 log reduction from the initial population)”. The “Kill Time B. subtilis” value ([2]; test 3.8, 0.6%, 40° C.) was over 24 h, the “Kill Time B. subtilis” value ([2]; test 3.9, 0.6% QUAT, 50° C.) was under 16 h and the “Kill Time B. subtilis” value [2, 6] was over 48 h. For the same substance, the “B. subtilis (no kill)” value [2, 6] was “(no kill) (“No kill” means less than 2 log reduction from the initial population)”, the “Kill Time B. subtilis” value [2, 7] was over 48 h and the “B. subtilis (no kill)” value [2, 7] was “(no kill) (“No kill” means less than 2 log reduction from the initial population)”. For the same substance, the “Kill Time B. subtilis” value [2, 8] was under 1 h, the “Kill Time B. subtilis” value [2, 9] was under 1 h and the “Kill Time B. subtilis” value [2, 10] was under 1 h. For the same substance, the “Kill Time B. subtilis” value [2, 11] was under 1 h, the “Kill Time B. subtilis” value [2, 12] was under 1 h and the “Kill Time B. subtilis” value [2, 13] was under 2 h. The “Kill Time B. subtilis” value [2, 14] was under 1 h, the “Kill Time B. subtilis” value [2, 15] was under 1 h and the “Kill Time B. subtilis” value [2, 16] was under 1 h. For the same substance, the “Kill Time B. subtilis” value [2, 17] was under 1 h, the “Kill Time B. subtilis” value [2, 18] was under 1 h and the “Kill Time B. subtilis” value [2, 19] was under 1 h. The “Kill Time B. subtilis” value [2, 20] was over 48 h, the “B. subtilis (no kill)” value [2, 20] was “(no kill) (“No kill” means less than 2 log reduction from the initial population)” and the “Kill Time B. subtilis” value [2, 21] was under 2 h. The “Kill Time B. subtilis” value [2, 22] was under 1 h, the “Kill Time B. subtilis” value [2, 23] was under 1 h and the “Kill Time B. subtilis” value [2, 24] was under 1 h. The “Kill Time B. subtilis” value [2, 25] was under 1 h and the “Kill Time B. subtilis” value [2, 26] was under 1 h.
